Results from patent US8785452B2, “Anti-infective compounds” (priority 2008, dated 2014).

tested on: M. tuberculosis H37Rv-GFP; assay: microbe, parasite or virus in culture; assay type: cell-based, Mycobacterium tuberculosis; details: Mycobacterium tuberculosis, H37RV, Macrophage; confirmation, 20 uM; read-out: QIM Confirm % Inhibition 20 uM

Row | Compound | inhibition at 20 µM [%]
1 | O=C(N/N=C/c1ccc[nH]1)c1ccccn1 [IPK 000 058 21] | 56
2 | O=C(Nc1cccc(C(F)(F)F)c1)Nc1ccc(Cl)c(Cl)c1 [IPK 000 052 50] | 76.4
3 | O=C(N/N=C/c1ccc(Cl)cc1Cl)c1ccncc1 [IPK 000 043 13] | 104
4 | CN(C)c1ccc(/C=N/NC(=O)c2ccncc2)cc1 [IPK 000 042 96] | 105
5 | O=[N+]([O-])c1ccc(O)c(/C=N/c2ccccc2O)c1 [IPK 000 044 20] | 30.7
6 | O=C(Nc1ccc(Cl)c(Cl)c1)c1ccc([N+](=O)[O-])cc1Cl [IPK 000 048 99] | 73.5
7 | CCCC(=O)/N=C(\N)Nc1nc2ccccc2o1 [IPK 000 122 62] | 65.1
8 | O=C(Nc1nccs1)c1ccc(COc2ccc(Cl)cc2)o1 [IPK 000 124 54] | 75
9 | O=C(N/N=C/c1ccccc1[N+](=O)[O-])c1ccncc1 [IPK 000 043 35] | 101
10 | CCc1ccc(/C=N/NC(=O)c2ccncc2)cc1 [IPK 000 043 31] | 100
11 | CC1=C(Nc2ccc(S(=O)(=O)Nc3nc(C)cc(C)n3)cc2)Sc2ccccc2N1 [IPK 000 112 67] | 32.6
12 | CCOC(=O)C1=C(C)NC2=C(C(=O)CC(c3ccccc3)C2)C1c1cccc(O)c1 (stereo not shown) [IPK 000 083 89] | 59.1
13 | O=C(N/N=C/C=C/c1ccc([N+](=O)[O-])cc1)c1ccncc1 [IPK 000 043 30] | 102
14 | O=C(Nc1sc2c(c1C(=O)Nc1ccccc1)CCC2)c1cccs1 [IPK 000 042 30] | 95.9
15 | CC(Oc1cccc2ccccc12)C(=O)NNC(=O)c1cc2ccccc2oc1=O (stereo not shown) [IPK 000 095 07] | 75.8
16 | CC(=O)Oc1ccccc1C(=S)Nc1ccccc1 [IPK 000 042 77] | 48.9
17 | O=C(NC12CC3CC(CC(C3)C1)C2)c1ccc([N+](=O)[O-])cc1 [IPK 000 113 77] | 74.3
18 | N=C1S/C(=C/c2ccc([N+](=O)[O-])cc2)C(=O)N1c1nccs1 [IPK 000 094 38] | 6

same assay, conditions: Mycobacterium tuberculosis, H37RV, Macrophage; primary screen, 20 μM; read-out: Primary QIM % Inhibition

Row | Compound | inhibition at 20 µM [%]
19 | O=C(N/N=C/c1ccc[nH]1)c1ccccn1 [IPK 000 058 21] | 90.9
20 | O=C(Nc1cccc(C(F)(F)F)c1)Nc1ccc(Cl)c(Cl)c1 [IPK 000 052 50] | 45
21 | O=C(N/N=C/c1ccc(Cl)cc1Cl)c1ccncc1 [IPK 000 043 13] | 49.2
22 | CN(C)c1ccc(/C=N/NC(=O)c2ccncc2)cc1 [IPK 000 042 96] | 84.3
23 | O=[N+]([O-])c1ccc(O)c(/C=N/c2ccccc2O)c1 [IPK 000 044 20] | -67.5
24 | O=C(Nc1ccc(Cl)c(Cl)c1)c1ccc([N+](=O)[O-])cc1Cl [IPK 000 048 99] | 76.8
25 | CCCC(=O)/N=C(\N)Nc1nc2ccccc2o1 [IPK 000 122 62] | 62.8
26 | O=C(Nc1nccs1)c1ccc(COc2ccc(Cl)cc2)o1 [IPK 000 124 54] | 75.5
27 | O=C(N/N=C/c1ccccc1[N+](=O)[O-])c1ccncc1 [IPK 000 043 35] | 104
28 | CCc1ccc(/C=N/NC(=O)c2ccncc2)cc1 [IPK 000 043 31] | 94.6
29 | CC1=C(Nc2ccc(S(=O)(=O)Nc3nc(C)cc(C)n3)cc2)Sc2ccccc2N1 [IPK 000 112 67] | -36.5
30 | CCOC(=O)C1=C(C)NC2=C(C(=O)CC(c3ccccc3)C2)C1c1cccc(O)c1 (stereo not shown) [IPK 000 083 89] | 73.5
31 | O=C(N/N=C/C=C/c1ccc([N+](=O)[O-])cc1)c1ccncc1 [IPK 000 043 30] | 107
32 | O=C(Nc1sc2c(c1C(=O)Nc1ccccc1)CCC2)c1cccs1 [IPK 000 042 30] | 73.7
33 | CC(Oc1cccc2ccccc12)C(=O)NNC(=O)c1cc2ccccc2oc1=O (stereo not shown) [IPK 000 095 07] | 70.9
34 | CC(=O)Oc1ccccc1C(=S)Nc1ccccc1 [IPK 000 042 77] | 105
35 | O=C(NC12CC3CC(CC(C3)C1)C2)c1ccc([N+](=O)[O-])cc1 [IPK 000 113 77] | 60.9
36 | N=C1S/C(=C/c2ccc([N+](=O)[O-])cc2)C(=O)N1c1nccs1 [IPK 000 094 38] | 46

tested on: Raw264.7 cells; assay: not given; details: mouse, 5 days, 20 μM

Row | Compound | Primary QIM CellNb
37 | O=C(N/N=C/c1ccc[nH]1)c1ccccn1 [IPK 000 058 21] | 75.7
38 | O=C(Nc1cccc(C(F)(F)F)c1)Nc1ccc(Cl)c(Cl)c1 [IPK 000 052 50] | 10.8
39 | O=C(N/N=C/c1ccc(Cl)cc1Cl)c1ccncc1 [IPK 000 043 13] | 101.6
40 | CN(C)c1ccc(/C=N/NC(=O)c2ccncc2)cc1 [IPK 000 042 96] | 101.1
41 | O=[N+]([O-])c1ccc(O)c(/C=N/c2ccccc2O)c1 [IPK 000 044 20] | 6.3
42 | O=C(Nc1ccc(Cl)c(Cl)c1)c1ccc([N+](=O)[O-])cc1Cl [IPK 000 048 99] | 40.3
43 | CCCC(=O)/N=C(\N)Nc1nc2ccccc2o1 [IPK 000 122 62] | 26.2
44 | O=C(Nc1nccs1)c1ccc(COc2ccc(Cl)cc2)o1 [IPK 000 124 54] | 16.4
45 | O=C(N/N=C/c1ccccc1[N+](=O)[O-])c1ccncc1 [IPK 000 043 35] | 94.4
46 | CCc1ccc(/C=N/NC(=O)c2ccncc2)cc1 [IPK 000 043 31] | 101.5
47 | CC1=C(Nc2ccc(S(=O)(=O)Nc3nc(C)cc(C)n3)cc2)Sc2ccccc2N1 [IPK 000 112 67] | 27.6
48 | CCOC(=O)C1=C(C)NC2=C(C(=O)CC(c3ccccc3)C2)C1c1cccc(O)c1 (stereo not shown) [IPK 000 083 89] | 19.5
49 | O=C(N/N=C/C=C/c1ccc([N+](=O)[O-])cc1)c1ccncc1 [IPK 000 043 30] | 100.8
50 | O=C(Nc1sc2c(c1C(=O)Nc1ccccc1)CCC2)c1cccs1 [IPK 000 042 30] | 75.2
51 | CC(Oc1cccc2ccccc12)C(=O)NNC(=O)c1cc2ccccc2oc1=O (stereo not shown) [IPK 000 095 07] | 8.0
52 | CC(=O)Oc1ccccc1C(=S)Nc1ccccc1 [IPK 000 042 77] | 7.7
53 | O=C(NC12CC3CC(CC(C3)C1)C2)c1ccc([N+](=O)[O-])cc1 [IPK 000 113 77] | 48.4
54 | N=C1S/C(=C/c2ccc([N+](=O)[O-])cc2)C(=O)N1c1nccs1 [IPK 000 094 38] | 13.6

tested on: Raw264.7 cells; assay: Cell number (CellNb) from image analysis of the phenotypic cell-based assay; details: confirmation, 20 uM

Row | Compound | QIM Confirm CellNb 20 uM
55 | O=C(N/N=C/c1ccccc1[N+](=O)[O-])c1ccncc1 [IPK 000 043 35] | 461.5

same assay, conditions: primary screen, 20 μM

Row | Compound | Primary QIM CellNb
56 | O=C(N/N=C/c1ccc[nH]1)c1ccccn1 [IPK 000 058 21] | 452.5
57 | O=C(Nc1cccc(C(F)(F)F)c1)Nc1ccc(Cl)c(Cl)c1 [IPK 000 052 50] | 44.0
58 | O=C(N/N=C/c1ccc(Cl)cc1Cl)c1ccncc1 [IPK 000 043 13] | 177.8
59 | CN(C)c1ccc(/C=N/NC(=O)c2ccncc2)cc1 [IPK 000 042 96] | 216.3
60 | O=[N+]([O-])c1ccc(O)c(/C=N/c2ccccc2O)c1 [IPK 000 044 20] | 135.0
61 | O=C(Nc1ccc(Cl)c(Cl)c1)c1ccc([N+](=O)[O-])cc1Cl [IPK 000 048 99] | 217.8
62 | CCCC(=O)/N=C(\N)Nc1nc2ccccc2o1 [IPK 000 122 62] | 131.5
63 | O=C(Nc1nccs1)c1ccc(COc2ccc(Cl)cc2)o1 [IPK 000 124 54] | 503.3
64 | O=C(N/N=C/c1ccccc1[N+](=O)[O-])c1ccncc1 [IPK 000 043 35] | 245.5
65 | CCc1ccc(/C=N/NC(=O)c2ccncc2)cc1 [IPK 000 043 31] | 334.0
66 | CC1=C(Nc2ccc(S(=O)(=O)Nc3nc(C)cc(C)n3)cc2)Sc2ccccc2N1 [IPK 000 112 67] | 250.8
67 | CCOC(=O)C1=C(C)NC2=C(C(=O)CC(c3ccccc3)C2)C1c1cccc(O)c1 (stereo not shown) [IPK 000 083 89] | 38.8
68 | O=C(N/N=C/C=C/c1ccc([N+](=O)[O-])cc1)c1ccncc1 [IPK 000 043 30] | 305.0
69 | O=C(Nc1sc2c(c1C(=O)Nc1ccccc1)CCC2)c1cccs1 [IPK 000 042 30] | 193.8
70 | CC(Oc1cccc2ccccc12)C(=O)NNC(=O)c1cc2ccccc2oc1=O (stereo not shown) [IPK 000 095 07] | 388.3
71 | CC(=O)Oc1ccccc1C(=S)Nc1ccccc1 [IPK 000 042 77] | 367.0
72 | O=C(NC12CC3CC(CC(C3)C1)C2)c1ccc([N+](=O)[O-])cc1 [IPK 000 113 77] | 319.8
73 | N=C1S/C(=C/c2ccc([N+](=O)[O-])cc2)C(=O)N1c1nccs1 [IPK 000 094 38] | 126.3
